Measured values taken from patent publication US20260085067A1, “CYCLIC SULFONAMIDE RIBONUCLEOTIDE REDUCTASE (RNR) INHIBITORS AND USES THEREOF” (Boundless Bio, Inc., priority 2022, published 2026).

Target: T1, RNR (RNR1:RNR2 1:1) (Homo sapiens, UniProt P23921)
T1 sequence (P23921 1-792): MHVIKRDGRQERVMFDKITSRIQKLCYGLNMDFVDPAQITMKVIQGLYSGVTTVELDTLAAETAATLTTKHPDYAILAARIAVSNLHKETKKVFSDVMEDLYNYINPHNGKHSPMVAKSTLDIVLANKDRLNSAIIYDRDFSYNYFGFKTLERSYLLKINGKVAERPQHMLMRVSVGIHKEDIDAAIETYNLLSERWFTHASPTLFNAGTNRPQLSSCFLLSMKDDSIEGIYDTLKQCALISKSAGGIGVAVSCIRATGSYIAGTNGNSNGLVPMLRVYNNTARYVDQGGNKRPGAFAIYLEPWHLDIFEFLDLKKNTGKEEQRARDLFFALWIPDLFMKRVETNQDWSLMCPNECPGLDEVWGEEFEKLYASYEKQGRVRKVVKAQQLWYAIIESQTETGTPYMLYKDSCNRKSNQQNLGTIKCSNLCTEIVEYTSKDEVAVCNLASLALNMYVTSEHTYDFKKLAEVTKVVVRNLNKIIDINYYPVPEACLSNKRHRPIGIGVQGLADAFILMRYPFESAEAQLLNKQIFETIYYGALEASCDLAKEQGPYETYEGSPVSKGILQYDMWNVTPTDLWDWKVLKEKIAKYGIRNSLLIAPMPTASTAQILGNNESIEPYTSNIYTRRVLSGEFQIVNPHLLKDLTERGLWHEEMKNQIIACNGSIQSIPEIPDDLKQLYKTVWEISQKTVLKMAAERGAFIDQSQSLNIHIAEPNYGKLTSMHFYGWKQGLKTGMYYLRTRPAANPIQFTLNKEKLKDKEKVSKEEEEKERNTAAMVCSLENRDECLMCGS
Experiment: RNR enzyme activity, rapid-fire mass spectrometry (RF/MS) assay
Type: biochemical
Conditions: [RNR] 50 nM, 1:1 RNR1:RNR2; CDP 5 μM; ATP 1 mM; 37° C., 45 min; compounds screened up to 50 μM
Protocol: A rapid-fire mass spectrometry (RF/MS) assay was used to assess RNR enzyme activity using a 384 well plate and a robotic platform.
The plate layout included two validated reference compounds (Triapine (3-AP) and Hydroxyurea (HU)): • A dose response in duplicate; top concentration: 5 μM (3-AP) and 250 μM (HU), semi-log dilutions. • Spike wells in triplicate randomly spotted at four concentrations: • 250 μM, 100 μM, 30 μM and 2 μM for HU • 5 μM, 2 μM, 0.6 μM and 0.04 μM for 3-AP
First, the multidrop pipes were saturated for 30 minutes with enzymatic solution. Then 30 μL of Stop solution was distributed in column 24. Next, 15 μL of enzyme was distributed in column 1 to 24. Next, a pre-incubation step of 15 minutes at room temperature occurred, followed by distribution of 15 μL of substrate solution (column 1 to 24). Next, the plate was incubated for 45 minutes at 37° C. 30 μL of Stop solution was then distributed to columns 1 to 23.
The final parameters for the enzyme reactions were: • Incubation: 37° C., 45 min • [CDP]: 5 μM; [ATP]: 1 mM; [NADPH]: No • [RNR]final: 50 nM with 1:1 (RNR1:RNR2) ratio • Final volume: 30 μL • Stop solution: 6% HCOOH in water

IC50 | SMILES
< 0.02 µM | Cc1ccc(F)c([C@H](C)[C@H](c2n[nH]c(=O)o2)N2CN(CC(O)CO)c3cc(Cl)ccc3S2(=O)=O)c1C (mixture of isomers) [Example 85, 5-((1R,2S)-1-(6-chloro-4-(2,3-dihydroxypropyl)-1,1-dioxido-3,4-dihydro-2H-benzo[e][1,2,4]thiadiazin-2-yl)-2-(6-fluoro-2,3-dimethylphenyl)propyl)-1,3,4-oxadiazol-2 (3H)-one]
1 to 10 µM | Cc1ccc(F)c([C@@H](C)[C@@H](c2n[nH]c(=O)o2)N2CCOc3c(ccc(Cl)c3C(C)O)S2(=O)=O)c1C (single isomer, unassigned) [Example 28]
10 to 100 µM | Cc1ccc(F)c([C@@H](C)[C@@H](c2n[nH]c(=O)o2)N2CCOc3c(ccc(Cl)c3C(C)O)S2(=O)=O)c1C (single isomer, unassigned) [Example 29]

System: pCHK1 (S345) in Colo320 DM cells
Experiment: Alphalisa assay, detection of pCHK1 (S345) in Colo320 DM cells
Type: cell-based, human
Conditions: Homo sapiens, COLO 320DM, compound overnight (approximately 16 hours)
Protocol: Colo320 DM cells (ATCC #CCL-220, derived from human colorectal adenocarcinoma, Dukes' type C) were seeded on a […], cell culture treated assay plate at a density of 50,000 cells/well in 200 μL of RPMI-1640 media supplemented with 10% Fetal Bovine Serum and incubated at 37° C. overnight. The following day, test compound dilutions were added directly to the plated cells by a Tecan digital dispenser to a final DMSO concentration of <0.5%. and incubated at 37° C. overnight (approximately 16 hours). The following day all cell culture media was removed from the cells. 75 μL of 1×AlphaLisa lysis buffer was added to each well and plates were agitated on a shaker for 30 minutes at room temperature. The lysis of cells and detection of pCHK1 (S345) were performed with reagents contained within the AlphaLisa Sure Fire assay kit (Perkin Elmer #ALSU-PCHK1-A) according to the manufacturer's instructions. 10 μL of each lysate was then transferred to a white, 384-well assay plate (Perkin Elmer #6008280). 5 μL of Acceptor mix was then added to each well of lysate in the white, 384-well assay plate and incubated in the dark at room temperature for 60 minutes. 5 μL of Donor mix was then added to each well of the white, 384-well assay plate in subdued light and incubated at room temperature for 60 minutes. Plates were read on an Alpha Technology-compatible plate reader using standard AlphaLisa settings.

IC50 | SMILES
1 to 5 µM | Cc1ccc(F)c([C@H](C)[C@H](c2n[nH]c(=O)o2)N2CN(CC(O)CO)c3cc(Cl)ccc3S2(=O)=O)c1C (mixture of isomers) [Example 85, 5-((1R,2S)-1-(6-chloro-4-(2,3-dihydroxypropyl)-1,1-dioxido-3,4-dihydro-2H-benzo[e][1,2,4]thiadiazin-2-yl)-2-(6-fluoro-2,3-dimethylphenyl)propyl)-1,3,4-oxadiazol-2 (3H)-one]
> 50 µM | Cc1ccc(F)c([C@@H](C)[C@@H](c2n[nH]c(=O)o2)N2CCOc3c(ccc(Cl)c3C(C)O)S2(=O)=O)c1C (single isomer, unassigned) [Example 28]
10 to 50 µM | Cc1ccc(F)c([C@@H](C)[C@@H](c2n[nH]c(=O)o2)N2C(C)N(C)c3cc(Cl)ccc3S2(=O)=O)c1C (stereo partly drawn) [Example 11, 5-((1S,2R)-1-(6-chloro-3,4-dimethyl-1,1-dioxido-3,4-dihydro-2H-benzo[e][1,2,4]thiadiazin-2-yl)-2-(6-fluoro-2,3-dimethylphenyl)propyl)-1,3,4-oxadiazol-2 (3H)-one]
≤ 1 µM | Cc1ccc(F)c([C@@H](C)[C@@H](c2n[nH]c(=O)o2)N2CN(CC(C)(C)O)c3cc(Cl)ccc3S2(=O)=O)c1C [Example 91, 5-((1S,2R)-1-(6-chloro-4-(2-hydroxy-2-methylpropyl)-1,1-dioxido-3,4-dihydro-2H-benzo[e][1,2,4]thiadiazin-2-yl)-2-(6-fluoro-2,3-dimethylphenyl)propyl)-1,3,4-oxadiazol-2 (3H)-one]
1 to 5 µM | CC(=O)c1cc(Cl)cc2c1S(=O)(=O)N([C@H](c1n[nH]c(=O)o1)[C@@H](C)c1c(F)ccc(C)c1C)CN2C1CC1 [Example 94, 5-((1S,2S)-1-(8-acetyl-6-chloro-4-cyclopropyl-1,1-dioxido-3,4-dihydro-2H-benzo[e][1,2,4]thiadiazin-2-yl)-2-(6-fluoro-2,3-dimethylphenyl)propyl)-1,3,4-oxadiazol-2 (3H)-one]
≤ 1 µM | Cc1ccc(F)c([C@@H](C)[C@@H](c2n[nH]c(=O)o2)N2CN(C3CN(CC(F)F)C3)c3cc(Cl)ccc3S2(=O)=O)c1C [Example 107, 5-((1S,2R)-1-(6-chloro-4-(1-(2,2-difluoroethyl)azetidin-3-yl)-1,1-dioxido-3,4-dihydro-2H-benzo[e][1,2,4]thiadiazin-2-yl)-2-(6-fluoro-2,3-dimethylphenyl)propyl)-1,3,4-oxadiazol-2 (3H)-one]
≤ 1 µM | Cc1ccc(F)c([C@@H](C)[C@@H](c2n[nH]c(=O)o2)N2CN(CCF)c3cc(Cl)ccc3S2(=O)=O)c1C [Example 108, 5-((1S,2R)-1-(6-chloro-4-(2-fluoroethyl)-1,1-dioxido-3,4-dihydro-2H-benzo[e][1,2,4]thiadiazin-2-yl)-2-(6-fluoro-2,3-dimethylphenyl)propyl)-1,3,4-oxadiazol-2 (3H)-one]
≤ 1 µM | CC(=O)c1cc(Cl)cc2c1S(=O)(=O)N([C@H](c1n[nH]c(=O)o1)[C@H](C)c1c(F)ccc(C)c1C)CN2 [Example 109, 5-((1S,2R)-1-(8-acetyl-6-chloro-1,1-dioxido-3,4-dihydro-2H-benzo[e][1,2,4]thiadiazin-2-yl)-2-(6-fluoro-2,3-dimethylphenyl)propyl)-1,3,4-oxadiazol-2 (3H)-one]
≤ 1 µM | CC(=O)c1cc(Cl)cc2c1S(=O)(=O)N([C@H](c1n[nH]c(=O)o1)[C@H](C)c1c(F)ccc(C)c1C)CN2CCO [Example 110, 5-((1S,2R)-1-(8-acetyl-6-chloro-4-(2-hydroxyethyl)-1,1-dioxido-3,4-dihydro-2H-benzo[e][1,2,4]thiadiazin-2-yl)-2-(6-fluoro-2,3-dimethylphenyl)propyl)-1,3,4-oxadiazol-2 (3H)-one]
≤ 1 µM | Cc1ccc(F)c([C@@H](C)[C@@H](c2n[nH]c(=O)o2)N2CN([C@H]3C[C@@H](N(C)C)C3)c3cc(Cl)ccc3S2(=O)=O)c1C [Example 111, 5-((1S,2R)-1-(6-chloro-4-((1s,3R)-3-(dimethylamino)cyclobutyl)-1,1-dioxido-3,4-dihydro-2H-benzo[e][1,2,4]thiadiazin-2-yl)-2-(6-fluoro-2,3-dimethylphenyl)propyl)-1,3,4-oxadiazol-2 (3H)-one]
≤ 1 µM | Cc1ccc(F)c([C@@H](C)[C@@H](c2n[nH]c(=O)o2)N2CN([C@H]3C[C@@H](O)C3)c3cc(Cl)ccc3S2(=O)=O)c1C [Example 112, 5-((1S,2R)-1-(6-chloro-4-((1s,3R)-3-hydroxycyclobutyl)-1,1-dioxido-3,4-dihydro-2H-benzo[e][1,2,4]thiadiazin-2-yl)-2-(6-fluoro-2,3-dimethylphenyl)propyl)-1,3,4-oxadiazol-2 (3H)-one]
5 to 10 µM | Cc1ccc(F)c([C@@H](C)[C@@H](c2n[nH]c(=O)o2)N2CN(CCN)c3cc(Cl)ccc3S2(=O)=O)c1C [Example 113, 5-((1S,2R)-1-(4-(2-aminoethyl)-6-chloro-1,1-dioxido-3,4-dihydro-2H-benzo[e][1,2,4]thiadiazin-2-yl)-2-(6-fluoro-2,3-dimethylphenyl)propyl)-1,3,4-oxadiazol-2 (3H)-one]
5 to 10 µM | Cc1ccc(F)c([C@@H](C)[C@@H](c2n[nH]c(=O)o2)N2CN(OCc3ccccc3)c3cc(Cl)ccc3S2(=O)=O)c1C [Example 114, 5-((1S,2R)-1-(4-(benzyloxy)-6-chloro-1,1-dioxido-3,4-dihydro-2H-benzo[e][1,2,4]thiadiazin-2-yl)-2-(6-fluoro-2,3-dimethylphenyl)propyl)-1,3,4-oxadiazol-2 (3H)-one]
5 to 10 µM | CNCCN1CN([C@H](c2n[nH]c(=O)o2)[C@H](C)c2c(F)ccc(C)c2C)S(=O)(=O)c2ccc(Cl)cc21 [Example 115, 5-((1S,2R)-1-(6-chloro-4-(2-(methylamino)ethyl)-1,1-dioxido-3,4-dihydro-2H-benzo[e][1,2,4]thiadiazin-2-yl)-2-(6-fluoro-2,3-dimethylphenyl)propyl)-1,3,4-oxadiazol-2 (3H)-one]
5 to 10 µM | CC(=O)c1cc(Cl)cc2c1S(=O)(=O)N([C@H](c1n[nH]c(=O)o1)[C@H](C)c1c(F)ccc(C)c1C)CC(=O)N2 [Example 119, 5-((1S,2R)-1-(9-acetyl-7-chloro-1,1-dioxido-4-oxo-4,5-dihydrobenzo[f][1,2,5]thiadiazepin-2 (3H)-yl)-2-(6-fluoro-2,3-dimethylphenyl)propyl)-1,3,4-oxadiazol-2 (3H)-one]

SMILES | IC50
Cc1ccc(F)c([C@@H](C)[C@@H](c2n[nH]c(=O)o2)N2COc3c(ccc(Cl)c3C)S2(=O)=O)c1C [Example 31, 5-((1S,2R)-1-(6-chloro-5-methyl-1,1-dioxidobenzo[e][1,4,3]oxathiazin-2 (3H)-yl)-2-(6-fluoro-2,3-dimethylphenyl)propyl)-1,3,4-oxadiazol-2 (3H)-one] | 1 to 5 µM

Same assay, conditions: compound overnight (approximately 16 hours)

IC50 | SMILES
> 50 µM | Cc1ccc(F)c([C@@H](C)[C@@H](c2n[nH]c(=O)o2)N2CCOc3c(ccc(Cl)c3C(C)O)S2(=O)=O)c1C (single isomer, unassigned) [Example 29]
